In patent US20050037926A1, “Pesticide preparations containing copolymers” (priority 2001, published 2005):

Columns and labels:
Type in all cases: in vivo
Conditions in all cases: 600 g copolymer where named, 300 l/ha, 21 days at 20° C.
[1] = system: SEBEX, AMARE, GALAP, ABUTH, ECHCG, PHBPU; assay: Greenhouse herbicidal action, total over the six plant species
Method: (§1) Test formulations were prepared with in each case 200 g, 300 g and 500 g of glyphosate and in each case 600 g of the copolymers I to V in 300 l of water. The data by weight refer to 100% active ingredient and 100% adjuvant. An amount of the formulation corresponding to the ratio 300 l/ha was applied in a greenhouse to the plant species Abutilon theophrasti (ABUTH), Sesbania exaltata (SEBEX), Pharbitis purpurea (PHBPU), Galium aparine (GALAP), Amaranthus retroflexus (AMARE) and Echinochloa crus-galli (ECHCG), and, after 21 days at 20° C., the plant growth was assessed according to a % scale.
(§2) 0% means no effect and 100% means complete destruction of the types of plant.

[2] = system: Echinochloa crus-galli (ECHCG); assay: Greenhouse herbicidal action of glyphosate test formulations
Method: as §1, §2

[3] = system: Pharbitis purpurea (PHBPU); assay: as above
Method: as §1, §2

[4] = system: Amaranthus retroflexus (AMARE); assay: as above
Method: as §1, §2

[5] = system: Abutilon theophrasti (ABUTH); assay: as above
Method: as §1, §2

Galium aparine (GALAP) = assay: as above
Method: as §1, §2

[6] = system: Sesbania exaltata (SEBEX); assay: as above
Method: as §1, §2

## O=C(O)CNCP(=O)(O)O [Glyphosate, N-phosphonomethylglycine]
[1]; glyphosate 200 g/ha
  herbicidal action Total: 10%
[1]; glyphosate 300 g/ha
  herbicidal action Total: 22%
[1]; glyphosate 500 g/ha
  herbicidal action Total: 38%
[2]; glyphosate 200 g/ha
  herbicidal action ECHCG (plant growth assessed on % scale): 15%
[2]; glyphosate 300 g/ha
  herbicidal action ECHCG (plant growth assessed on % scale): 20%
[2]; glyphosate 500 g/ha
  herbicidal action ECHCG (plant growth assessed on % scale): 40%
[3]; glyphosate 200 g/ha
  herbicidal action PHBPU (plant growth assessed on % scale): 10%
[3]; glyphosate 300 g/ha
  herbicidal action PHBPU (plant growth assessed on % scale): 20%
[3]; glyphosate 500 g/ha
  herbicidal action PHBPU (plant growth assessed on % scale): 40%
[4]; glyphosate 200 g/ha
  herbicidal action AMARE (plant growth assessed on % scale): 20%
[4]; glyphosate 300 g/ha
  herbicidal action AMARE (plant growth assessed on % scale): 45%
[4]; glyphosate 500 g/ha
  herbicidal action AMARE (plant growth assessed on % scale): 65%
[5]; glyphosate 200 g/ha
  herbicidal action ABUTH (plant growth assessed on % scale): 0%
[5]; glyphosate 300 g/ha
  herbicidal action ABUTH (plant growth assessed on % scale): 10%
[5]; glyphosate 500 g/ha
  herbicidal action ABUTH (plant growth assessed on % scale): 15%
Galium aparine (GALAP); glyphosate 200 g/ha
  herbicidal action GALAP (plant growth assessed on % scale): 5%
Galium aparine (GALAP); glyphosate 300 g/ha
  herbicidal action GALAP (plant growth assessed on % scale): 20%
Galium aparine (GALAP); glyphosate 500 g/ha
  herbicidal action GALAP (plant growth assessed on % scale): 40%
[6]; glyphosate 200 g/ha, 0% no effect, 100% complete destruction
  herbicidal action SEBEX (plant growth assessed on % scale): 10%
[6]; glyphosate 300 g/ha
  herbicidal action SEBEX (plant growth assessed on % scale): 15%
[6]; glyphosate 500 g/ha
  herbicidal action SEBEX (plant growth assessed on % scale): 30%
